Test results reported in patent US20120164670A1, “METHODS AND KITS FOR MEASURING ENZYME ACTIVITY” (President and Fellows of Harvard College, priority 2009, published 2012).
Where two headings read alike, the source gives them in different places.

How the values were obtained:
Type in all cases: biochemical
SIRT1 [1] = biological target: T1, SIRT1 (Homo sapiens, UniProt Q96EB6); experiment: PNC1-GDH (non-fluorometric) Nicotinamide Assay of SIRT1 deacetylation; details: FIG. 4; Nicotinamide Assay depicted in FIG. 1 (PNC1-GDH); read-out: NAD Km value for SIRT1
T1 sequence (Q96EB6 1-747): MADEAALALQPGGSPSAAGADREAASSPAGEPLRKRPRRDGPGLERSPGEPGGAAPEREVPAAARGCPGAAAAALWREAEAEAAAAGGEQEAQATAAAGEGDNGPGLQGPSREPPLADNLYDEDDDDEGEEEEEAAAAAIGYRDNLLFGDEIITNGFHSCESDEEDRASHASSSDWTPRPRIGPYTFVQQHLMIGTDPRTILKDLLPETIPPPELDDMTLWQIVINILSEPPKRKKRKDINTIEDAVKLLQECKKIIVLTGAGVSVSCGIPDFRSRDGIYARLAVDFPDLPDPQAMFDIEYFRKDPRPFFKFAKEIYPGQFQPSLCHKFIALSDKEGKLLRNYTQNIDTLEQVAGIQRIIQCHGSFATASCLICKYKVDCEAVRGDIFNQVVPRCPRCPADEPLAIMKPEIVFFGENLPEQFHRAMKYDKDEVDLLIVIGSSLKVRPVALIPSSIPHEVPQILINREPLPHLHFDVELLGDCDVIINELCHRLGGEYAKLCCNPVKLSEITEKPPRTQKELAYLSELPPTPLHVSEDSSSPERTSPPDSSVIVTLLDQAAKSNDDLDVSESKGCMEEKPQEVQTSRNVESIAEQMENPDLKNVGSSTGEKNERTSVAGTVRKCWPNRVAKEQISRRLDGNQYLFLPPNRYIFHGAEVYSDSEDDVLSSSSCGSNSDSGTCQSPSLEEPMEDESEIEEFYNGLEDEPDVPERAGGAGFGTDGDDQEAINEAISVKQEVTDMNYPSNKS
Experimental: A SIRT1 enzymatic deacetylation reaction was carried out in the presence of an acetylated substrate and β-NAD. […] Subsequently, a-Ketoglutarate and NADPH were added to the reaction mix. The absorbance was read at 340 nm using an appropriate spectrophotometer (Ro). PNC1 and GDH were then added in excess to induce the coupled conversion of NADPH to NADP (PNC1 first converts NAM to NH3, and subsequently GDH uses the ammonia to oxidize NADPH to NADP). A second reading at 340 nm was then obtained (R1). The difference in absorbance readings, R1-Ro is proportional to the amount of NAM produced in the initial deacetylation reaction, thereby allowing for the measurement of activity. A blank reaction was carried out in the absence of NAD (or absence of Enzyme), as above, and subtracted from each sample in order to normalize the data.
Ex. Substrate Concentration (BIOMOL)=20 uM; NAD Concentration=1 mM
1) Mix the following (final volume 100 uL): • a) 10 uL 10×BIOMOL Buffer (250 mM Tris-Cl [pH=8], 1.37 M NaCl, 27 mM KCl, 10 mM MgCl2) • b) 0.4 uL *H4K16-Lys BIOMOL peptide (from a 5 mM stock for a final concentration of 20 uM) • c) 1 uL of 100 mM B-NAD (for a final concentration of 1 mM) • d) 2 uL SIRT1 enzyme (at 1.2 ug/ul, total ˜2.5 ug) • e) […] ddH20 2) Mix the reaction by pipetting. […] Place the reaction on ice until ready to proceed with reaction 2 (Centrifuge Briefly). […]

SIRT1 [2] = biological target: T1, SIRT1; experiment: PNC1-OPT fluorescent Nicotinamide Assay of SIRT1 deacetylation
Experimental: A SIRT1 enzymatic deacetylation reaction was carried out in the presence of an acetylated substrate and β-NAD. […] Subsequently, PNC1 was added to the mixture to convert all of the nicotinamide generated during the reaction into ammonia. Additionally, PNC1 may be added directly to the SIRT1 reaction (and the reactions may proceed simultaneously). […] In brief, the products of the PNC1 reaction were reacted with o-phthaladehyde in the presence of DTT. The reaction was allowed to proceed for 1 hour, and subsequently the amount of fluorescent adducts obtained were measured fluorometrically with excitation at ˜413 nm and emission at ˜476 nm. […] A blank reaction was also performed in the absence of NAD.
Prepare a master-mix for the total number of reactions you wish to perform. For each individual reaction, mix the following in the order presented (the total volume for each reaction is 100 uL):
Incubate at 37° C. for the appropriate amount of time (typically 1 hour) Reaction 2: Nicotinamide→Ammonia→Fluorescent adducts Note: When adding the OPT Developer it is advisable to work in a dark or dimly lit setting. Dim the lights prior to adding the developer to each reaction. a) Add 100 uL of the OPT Developer Mix to each reaction. b) Mix each sample by vortexing briefly for 5 s at the highest setting. c) Immediately cover all of the samples with Aluminum foil, and incubate the reactions on an orbital shaker for 1 hour at room temperature. Once covered, ambient lighting may be restored. 3) If necessary samples may be transferred to a 96-well plate for reading (do this under dim light). Read the fluorescence on a fluorometer with filters set to excitation (˜420 nm+/−20, and emission ˜450 nm (+/−20). A 0.1 s or 1 s read is generally recommended.
OPT Developer Reagent: A solution of 10 mM OPT and 10 mM DTT in 100% EtOH. Store at −20° C. in the dark until use. Cover with Aluminum foil in order to minimize exposure to light.

[3] = biological target: T2, full-length human SIRT1 enzyme (Homo sapiens, UniProt Q96EB6); experiment: Sirtuin assay kit (PNC1-OPT) with hSIRT1 enzyme
T2 construct: 1.1 ug/uL full-length human SIRT1 enzyme
T2 sequence (Q96EB6 1-747): T1 sequence (Q96EB6 1-747)
Experimental: Kit contents are generally stored at −20° C. Modifications or variations in volumes or amounts of components described below are compatible with kits and assays described herein. • 1) Assay Buffer: 2 tubes with 1 mL each of 10× Assay Buffer. Dilute to 1× with ddH20 prior to use. • 2) Non-tagged Peptide Substrate: 1 tube with 140 uL of 5 mM H3K9ac substrate (TARK(ac)STG)) (SEQ ID NO:23). This is a sample substrate only; any substrate may be used in this assay. • 3) β-NAD: a) 1 tube with 450 uL of 10 mM B-NAD, and b) 1 tube with 50 uL of 100 mM B-NAD. In some instances, it is preferable to keep β-NAD in concentrated aliquot form, and dilute it prior to use. • 4) hSIRT1 Enzyme: 1 tube with 400 uL of 1.1 ug/uL full-length human SIRT1 enzyme. • 5) yPNC1 Enzyme: 1 tube with 200 uL of 2 ug/uL yeast PNC1 enzyme • 6) Developing Reagent: 2 vials with 10 mL each 1× Developer (10 mM OPT/10 mM DTT in 100% EtOH). Minimize exposure to light as outlined in the procedure. […]
In some instances, when adding the OPT Developer it is advisable to work in a dark or dimly lit setting. […] Once covered, ambient lighting may be restored. • d) Read the samples. Samples may be transferred to a 96-well plate for reading (do this under dim light). Read the fluorescence on a fluorometer with filters set to excitation ˜420 nm, and emission ˜460 nm. […]

NC(=O)C1=CN([C@@H]2O[C@H](COP(=O)(O)OP(=O)(O)OC[C@H]3O[C@@H](n4cnc5c(N)ncnc54)[C@H](O)[C@@H]3O)[C@@H](O)[C@H]2O)C=CC1 [NAD, β-nicotinamide adenine dinucleotide] was tested. Which Km (SIRT1 [1]) did it give?
The Km was 80 to 100 µM.

What about the Km (SIRT1 [2]; FIG. 8D, Nicotinamide Assay depicted in FIG. 6 (PNC1-OPT), Fleur de Lys peptide as substrate, read-out: NAD Km value for SIRT1) of the same compound?
The Km was roughly 200 µM.

What about the Km ([3]; kit protocol, Experiment 2 mastermix, read-out: Km of β-NAD (final concentration = Km)) of the same compound?
Its Km is 150 µM.

And the Km ([3]; stated in kit protocol (blank control note), read-out: Km for NAD)?
Its Km is roughly 160 µM.

With “DBC1: endogenous SIRT1 protein inhibitor” as the compound, how does the “effect of concentration on SIRT1 activity (dose titration)” value (SIRT1 [2]; FIG. 21B, H3K9-L peptide substrate) read?
The value was “inversely correlates with SIRT1 activity”.

Which “effect on SIRT1 deacetylase activity on the Fleur de Lys substrate” value (SIRT1 [2]; FIG. 10C, 100 uM, 75 uM β-NAD and 25 uM Fleur de Lys substrate) does the source give for Oc1ccc(C=Cc2cc(O)cc(O)c2)cc1 [Resveratrol, reference compound] here?
The value was “activation of SIRT1 deacetylase activity”.

Which “mechanism of SIRT1 inhibition” value (SIRT1 [2]; FIG. 19/20, Vmax and Vmax/K vs [ADPr] for β-NAD and H3K9 peptide) does the source give for “Adenosine diphosphate ribose [ADPr, reference compound]” here?
Its value is “competitive inhibitor of β-NAD”.
